In PubChem BioAssay (NCI):
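Exposure lasted 48 hours, with cells grown in 96-well plates and compounds tested at five concentrations. TGI marks complete inhibition of growth.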

Legend:
Assay in all cases: growth of human tumour cells (NCI), 48 h
SK-MEL-28 melanoma = test system: SK-MEL-28 melanoma
HOP-62 NSCLC = test system: HOP-62 NSCLC
SNB-75 CNS = test system: SNB-75 CNS
NCI/ADR-RES ovarian = test system: NCI/ADR-RES ovarian
NCI-H460 lung = test system: NCI-H460 lung
HCT-15 colon = test system: HCT-15 colon
NCI-H522 lung = test system: NCI-H522 lung
IGROV1 ovarian = test system: IGROV1 ovarian
HCT-116 colon = test system: HCT-116 colon
HCC-2998 colon = test system: HCC-2998 colon
UO-31 renal = test system: UO-31 renal
HS 578T breast = test system: HS 578T breast
MCF7 breast = test system: MCF7 breast
NCI-H23 lung = test system: NCI-H23 lung
OVCAR-3 ovarian = test system: OVCAR-3 ovarian
T-47D breast = test system: T-47D breast
PC-3 prostate = test system: PC-3 prostate
HOP-92 NSCLC = test system: HOP-92 NSCLC
SK-MEL-2 melanoma = test system: SK-MEL-2 melanoma
MALME-3M melanoma = test system: MALME-3M melanoma
CAKI-1 renal = test system: CAKI-1 renal
MDA-MB-435 = test system: MDA-MB-435
RXF 393 renal = test system: RXF 393 renal
OVCAR-5 ovarian = test system: OVCAR-5 ovarian
RPMI-8226 leukemia = test system: RPMI-8226 leukemia
HT29 colon = test system: HT29 colon
SK-MEL-5 melanoma = test system: SK-MEL-5 melanoma
COLO 205 colon = test system: COLO 205 colon
MDA-N = test system: MDA-N
U251 CNS = test system: U251 CNS
DU-145 prostate = test system: DU-145 prostate
MDA-MB-231 breast = test system: MDA-MB-231 breast
KM12 colon = test system: KM12 colon
HL-60(TB) leukemia = test system: HL-60(TB) leukemia
SK-OV-3 ovarian = test system: SK-OV-3 ovarian
SN12C renal = test system: SN12C renal
UACC-62 melanoma = test system: UACC-62 melanoma
A498 renal = test system: A498 renal
M14 melanoma = test system: M14 melanoma
K-562 leukemia = test system: K-562 leukemia
SF-295 CNS = test system: SF-295 CNS
OVCAR-8 ovarian = test system: OVCAR-8 ovarian
CCRF-CEM leukemia = test system: CCRF-CEM leukemia
SR leukemia = test system: SR leukemia
UACC-257 melanoma = test system: UACC-257 melanoma
TK-10 renal = test system: TK-10 renal
SF-539 CNS = test system: SF-539 CNS
SNB-19 CNS = test system: SNB-19 CNS
ACHN renal = test system: ACHN renal
EKVX NSCLC = test system: EKVX NSCLC
LOX IMVI melanoma = test system: LOX IMVI melanoma
MOLT-4 leukemia = test system: MOLT-4 leukemia
NCI-H226 lung = test system: NCI-H226 lung
SF-268 CNS = test system: SF-268 CNS
OVCAR-4 ovarian = test system: OVCAR-4 ovarian
SW-620 colon = test system: SW-620 colon
A549 NSCLC = test system: A549 NSCLC
786-0 renal = test system: 786-0 renal

SMILES: O=C(N=Nc1cc(Cl)ccc1Cl)NNc1cc(Cl)ccc1Cl
- TGI (SK-MEL-28 melanoma): 61.2 µM
- TGI (HOP-62 NSCLC): 40.7 µM
- TGI (SNB-75 CNS): 57.5 µM
- TGI (NCI/ADR-RES ovarian): 61.2 µM
- TGI (NCI-H460 lung): 44.5 µM
- TGI (HCT-15 colon): 64.4 µM
- TGI (NCI-H522 lung): 29.9 µM
- TGI (IGROV1 ovarian): 57.3 µM
- TGI (HCT-116 colon): 33.6 µM
- TGI (HCC-2998 colon): 94.1 µM
- TGI (UO-31 renal): 29 µM
- TGI (HS 578T breast): 52.6 µM
- TGI (MCF7 breast): 36.4 µM
- TGI (NCI-H23 lung): 53.1 µM
- TGI (OVCAR-3 ovarian): 32.7 µM
- TGI (T-47D breast): > 100 µM
- TGI (PC-3 prostate): 22.8 µM
- TGI (HOP-92 NSCLC): 32.9 µM
- TGI (SK-MEL-2 melanoma): 51.5 µM
- TGI (MALME-3M melanoma): 82.1 µM
- TGI (CAKI-1 renal): 43.7 µM
- TGI (MDA-MB-435): 30 µM
- TGI (RXF 393 renal): 25 µM
- TGI (OVCAR-5 ovarian): 39.8 µM
- TGI (RPMI-8226 leukemia): 33.8 µM
- TGI (HT29 colon): 37 µM
- TGI (SK-MEL-5 melanoma): 25.3 µM
- TGI (COLO 205 colon): 41.1 µM
- TGI (MDA-N): 84.4 µM
- TGI (U251 CNS): 31.3 µM
- TGI (DU-145 prostate): > 100 µM
- TGI (MDA-MB-231 breast): 40.1 µM
- TGI (KM12 colon): 33.9 µM
- TGI (HL-60(TB) leukemia): 32.4 µM
- TGI (SK-OV-3 ovarian): 63 µM
- TGI (SN12C renal): 52.5 µM
- TGI (UACC-62 melanoma): 27 µM
- TGI (A498 renal): 82.3 µM
- TGI (M14 melanoma): 32.5 µM
- TGI (K-562 leukemia): 54.6 µM
- TGI (SF-295 CNS): > 100 µM
- TGI (OVCAR-8 ovarian): > 100 µM
- TGI (CCRF-CEM leukemia): 49.8 µM
- TGI (SR leukemia): > 100 µM

SMILES: C=C[C@@H]1C(CO)=CCC2[C@H]1CCC1C(C)(C)C(=O)CC[C@]21C (some centres undefined)
- TGI (SK-MEL-28 melanoma): > 100 µM
- TGI (HOP-62 NSCLC): > 100 µM
- TGI (UACC-257 melanoma): > 100 µM
- TGI (TK-10 renal): > 100 µM
- TGI (SF-539 CNS): > 100 µM
- TGI (NCI/ADR-RES ovarian): > 100 µM
- TGI (NCI-H460 lung): > 100 µM
- TGI (SNB-19 CNS): > 100 µM
- TGI (HCT-15 colon): > 100 µM
- TGI (ACHN renal): > 100 µM
- TGI (NCI-H522 lung): > 100 µM
- TGI (IGROV1 ovarian): > 100 µM
- TGI (HCT-116 colon): > 100 µM
- TGI (HCC-2998 colon): > 100 µM
- TGI (UO-31 renal): > 100 µM
- TGI (HS 578T breast): > 100 µM
- TGI (MCF7 breast): > 100 µM
- TGI (NCI-H23 lung): > 100 µM
- TGI (OVCAR-3 ovarian): > 100 µM
- TGI (T-47D breast): > 100 µM
- TGI (EKVX NSCLC): > 100 µM
- TGI (PC-3 prostate): > 100 µM
- TGI (LOX IMVI melanoma): > 100 µM
- TGI (HOP-92 NSCLC): > 100 µM
- TGI (SK-MEL-2 melanoma): > 100 µM
- TGI (MALME-3M melanoma): > 100 µM
- TGI (MOLT-4 leukemia): > 100 µM
- TGI (CAKI-1 renal): > 100 µM
- TGI (MDA-MB-435): > 100 µM
- TGI (RXF 393 renal): > 100 µM
- TGI (NCI-H226 lung): > 100 µM
- TGI (OVCAR-5 ovarian): > 100 µM
- TGI (RPMI-8226 leukemia): > 100 µM
- TGI (HT29 colon): > 100 µM
- TGI (SK-MEL-5 melanoma): > 100 µM
- TGI (COLO 205 colon): > 100 µM
- TGI (MDA-N): > 100 µM
- TGI (U251 CNS): > 100 µM
- TGI (DU-145 prostate): > 100 µM
- TGI (SF-268 CNS): > 100 µM
- TGI (KM12 colon): > 100 µM
- TGI (OVCAR-4 ovarian): > 100 µM
- TGI (HL-60(TB) leukemia): > 100 µM
- TGI (SK-OV-3 ovarian): > 100 µM
- TGI (SN12C renal): > 100 µM
- TGI (UACC-62 melanoma): > 100 µM
- TGI (A498 renal): > 100 µM
- TGI (M14 melanoma): > 100 µM
- TGI (K-562 leukemia): > 100 µM
- TGI (SF-295 CNS): > 100 µM
- TGI (SW-620 colon): > 100 µM
- TGI (CCRF-CEM leukemia): > 100 µM
- TGI (A549 NSCLC): > 100 µM
- TGI (786-0 renal): > 100 µM
- TGI (SR leukemia): > 100 µM
